# What was measured:
# Test in all cases: biochemical
# Design in all cases: DiscoverX kinase panel, active-site competition binding (KINOMEscan type), percent of control at one concentration
# Conditions in all cases: competition binding, percent of control
# ADCK4 = biological target: T1, ADCK4 (Homo sapiens, UniProt Q96D53)
# T1 construct: gene COQ8B
# Text: (§1) To investigate the potential therapeutic benefit of inhibiting RIP1, we developed GNE684 or (S)-N-((S)-7-methoxy-1-methyl-2-oxo-2,3,4,5-tetrahydro-1H-pyrido[3,4-b]azepin-3-yl)-5-phenyl-6,7-dihydro-5H-pyrrolo[1,2-b][1,2,4]triazole-2-carboxamide with cross-species potency against RIP1, exquisite kinase selectivity, and favorable pharmacological properties (Fig. 1a–h, S1, Tables S1 and S2, SI file 1). […] (Fig. 1b, S1, and Table S1). […] GNE684 inhibited human RIP1 potently in vitro, and mouse and rat RIP1 with slightly less potency (Fig. 1d). Accordingly, it inhibited TNF-induced necroptosis in human HT-29, mouse L929, or rat H9c2 cells (Fig. 1e). The cellular potency of GNE684 was confirmed in a human whole blood assay using TBZ (TNF, IAP antagonist BV6, and pan-caspase inhibitor zVAD) or LZ (LPS plus zVAD) to trigger necroptosis and the release of IL-1α and IL-1β (Fig. 1f).
# AURKB = AURKB (Homo sapiens, UniProt Q96GD4)
# Text: as §1
# BMPR1B = BMPR1B (Homo sapiens, UniProt O00238)
# Text: as §1
# BRAF = BRAF (Homo sapiens, UniProt P15056)
# Text: as §1
# CSK = CSK (Homo sapiens, UniProt P41240)
# Text: as §1
# EGFR(L861Q) = EGFR(L861Q) (Homo sapiens, UniProt P00533, L861Q)
# Text: as §1
# EGFR(S752-I759del) = EGFR(S752-I759del) (Homo sapiens, UniProt P00533, DEL752-759)
# Text: as §1
# GRK3 = GRK3 (Homo sapiens, UniProt P35626)
# Text: as §1
# GSK3A = GSK3A (Homo sapiens, UniProt P49840)
# Text: as §1
# KIT = KIT (Homo sapiens, UniProt P10721)
# Text: as §1
# KIT(D816H) = KIT(D816H) (Homo sapiens, UniProt P10721, D816H)
# Text: as §1
# KIT(D816V) = KIT(D816V) (Homo sapiens, UniProt P10721, D816V)
# Text: as §1
# LKB1 = biological target: T2, LKB1 (Homo sapiens, UniProt Q15831)
# T2 construct: gene STK11
# Text: as §1
# MEK1 = biological target: T3, MEK1 (Homo sapiens, UniProt Q02750)
# T3 construct: gene MAP2K1
# Text: as §1
# MYLK4 = MYLK4 (Homo sapiens, UniProt Q86YV6)
# Text: as §1
# PLK1 = PLK1 (Homo sapiens, UniProt P53350)
# Text: as §1
# PRKD1 = PRKD1 (Homo sapiens, UniProt Q15139)
# Text: as §1
# QSK = biological target: T4, QSK (Homo sapiens, UniProt Q9Y2K2)
# T4 construct: gene SIK3
# Text: as §1
# SGK3 = SGK3 (Homo sapiens, UniProt Q96BR1)
# Text: as §1
# WEE2 = WEE2 (Homo sapiens, UniProt P0C1S8)
# Text: as §1
# YSK1 = biological target: T5, YSK1 (Homo sapiens, UniProt O00506)
# T5 construct: gene STK25
# Text: as §1
# T3 sequence (Q02750 whole entry): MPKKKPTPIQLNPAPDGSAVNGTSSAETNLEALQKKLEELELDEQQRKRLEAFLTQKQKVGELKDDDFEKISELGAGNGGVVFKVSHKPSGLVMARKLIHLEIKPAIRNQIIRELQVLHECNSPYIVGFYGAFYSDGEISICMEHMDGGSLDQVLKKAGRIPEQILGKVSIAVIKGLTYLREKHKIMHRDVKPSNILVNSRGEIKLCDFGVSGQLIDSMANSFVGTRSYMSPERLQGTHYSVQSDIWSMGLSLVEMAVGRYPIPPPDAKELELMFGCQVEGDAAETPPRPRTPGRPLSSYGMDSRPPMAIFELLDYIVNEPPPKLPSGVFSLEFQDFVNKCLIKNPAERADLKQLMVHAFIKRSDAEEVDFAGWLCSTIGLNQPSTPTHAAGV
# Sequence of KIT (P10721 whole entry): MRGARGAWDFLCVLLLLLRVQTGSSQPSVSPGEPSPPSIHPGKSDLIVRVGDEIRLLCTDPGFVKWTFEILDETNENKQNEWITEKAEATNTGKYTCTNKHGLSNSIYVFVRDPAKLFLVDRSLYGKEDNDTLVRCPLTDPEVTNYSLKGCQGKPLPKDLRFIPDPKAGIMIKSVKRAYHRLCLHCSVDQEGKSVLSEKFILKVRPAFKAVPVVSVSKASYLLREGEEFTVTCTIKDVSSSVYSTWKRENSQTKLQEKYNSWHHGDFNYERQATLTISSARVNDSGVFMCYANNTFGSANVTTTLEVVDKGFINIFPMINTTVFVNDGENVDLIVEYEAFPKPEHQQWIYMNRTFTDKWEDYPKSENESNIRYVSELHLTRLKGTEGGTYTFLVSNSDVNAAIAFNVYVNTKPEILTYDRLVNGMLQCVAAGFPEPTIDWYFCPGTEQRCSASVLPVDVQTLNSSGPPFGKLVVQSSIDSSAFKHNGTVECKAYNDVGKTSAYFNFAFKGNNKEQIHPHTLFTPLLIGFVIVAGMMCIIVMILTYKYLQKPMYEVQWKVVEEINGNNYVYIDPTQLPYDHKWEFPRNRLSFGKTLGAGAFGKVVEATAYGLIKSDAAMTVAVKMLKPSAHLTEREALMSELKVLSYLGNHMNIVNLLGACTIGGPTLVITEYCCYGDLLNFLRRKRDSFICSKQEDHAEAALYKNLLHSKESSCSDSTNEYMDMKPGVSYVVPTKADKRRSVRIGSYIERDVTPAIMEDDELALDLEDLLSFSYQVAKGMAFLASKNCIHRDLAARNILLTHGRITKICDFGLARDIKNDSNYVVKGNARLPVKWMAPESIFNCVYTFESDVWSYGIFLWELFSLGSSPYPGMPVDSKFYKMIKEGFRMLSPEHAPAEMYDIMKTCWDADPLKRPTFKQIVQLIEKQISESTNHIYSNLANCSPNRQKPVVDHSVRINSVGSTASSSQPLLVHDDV
# Sequence of AURKB (Q96GD4 whole entry): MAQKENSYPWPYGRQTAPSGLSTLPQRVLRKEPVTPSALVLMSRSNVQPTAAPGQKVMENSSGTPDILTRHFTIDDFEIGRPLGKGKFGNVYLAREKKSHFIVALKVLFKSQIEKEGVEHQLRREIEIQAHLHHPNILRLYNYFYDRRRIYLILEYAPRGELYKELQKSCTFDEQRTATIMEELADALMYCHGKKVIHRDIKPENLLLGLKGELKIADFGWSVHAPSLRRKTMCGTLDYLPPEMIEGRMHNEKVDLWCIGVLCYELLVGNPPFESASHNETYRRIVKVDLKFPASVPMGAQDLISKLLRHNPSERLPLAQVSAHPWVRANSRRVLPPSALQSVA
# Sequence of CSK (P41240 whole entry): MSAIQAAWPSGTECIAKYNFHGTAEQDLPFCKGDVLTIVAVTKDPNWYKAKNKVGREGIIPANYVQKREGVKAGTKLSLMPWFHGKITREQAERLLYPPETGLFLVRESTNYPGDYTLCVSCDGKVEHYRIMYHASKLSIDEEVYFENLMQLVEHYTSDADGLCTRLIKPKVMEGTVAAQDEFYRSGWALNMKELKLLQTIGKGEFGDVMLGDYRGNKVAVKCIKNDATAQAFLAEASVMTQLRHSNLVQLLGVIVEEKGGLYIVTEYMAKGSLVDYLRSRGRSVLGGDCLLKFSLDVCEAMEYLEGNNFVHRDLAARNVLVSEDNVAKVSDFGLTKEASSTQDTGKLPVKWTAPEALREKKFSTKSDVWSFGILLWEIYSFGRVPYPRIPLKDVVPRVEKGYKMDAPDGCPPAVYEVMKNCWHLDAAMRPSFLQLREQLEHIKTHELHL
# Sequence of WEE2 (P0C1S8 whole entry): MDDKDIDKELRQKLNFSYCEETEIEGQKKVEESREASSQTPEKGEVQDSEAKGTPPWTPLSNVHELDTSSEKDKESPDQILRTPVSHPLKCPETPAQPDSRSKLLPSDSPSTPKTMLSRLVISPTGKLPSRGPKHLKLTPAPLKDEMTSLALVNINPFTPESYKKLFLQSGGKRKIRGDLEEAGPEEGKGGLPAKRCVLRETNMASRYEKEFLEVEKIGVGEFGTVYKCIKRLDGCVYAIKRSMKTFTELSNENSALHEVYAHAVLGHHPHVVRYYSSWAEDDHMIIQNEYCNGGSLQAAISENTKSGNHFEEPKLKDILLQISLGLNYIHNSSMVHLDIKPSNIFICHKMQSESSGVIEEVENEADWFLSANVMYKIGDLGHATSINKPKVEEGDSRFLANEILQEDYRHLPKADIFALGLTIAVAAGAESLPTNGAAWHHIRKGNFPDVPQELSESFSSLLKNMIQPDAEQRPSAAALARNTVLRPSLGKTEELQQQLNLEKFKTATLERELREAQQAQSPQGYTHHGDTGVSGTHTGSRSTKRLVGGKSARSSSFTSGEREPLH
# T1 sequence (Q96D53 whole entry): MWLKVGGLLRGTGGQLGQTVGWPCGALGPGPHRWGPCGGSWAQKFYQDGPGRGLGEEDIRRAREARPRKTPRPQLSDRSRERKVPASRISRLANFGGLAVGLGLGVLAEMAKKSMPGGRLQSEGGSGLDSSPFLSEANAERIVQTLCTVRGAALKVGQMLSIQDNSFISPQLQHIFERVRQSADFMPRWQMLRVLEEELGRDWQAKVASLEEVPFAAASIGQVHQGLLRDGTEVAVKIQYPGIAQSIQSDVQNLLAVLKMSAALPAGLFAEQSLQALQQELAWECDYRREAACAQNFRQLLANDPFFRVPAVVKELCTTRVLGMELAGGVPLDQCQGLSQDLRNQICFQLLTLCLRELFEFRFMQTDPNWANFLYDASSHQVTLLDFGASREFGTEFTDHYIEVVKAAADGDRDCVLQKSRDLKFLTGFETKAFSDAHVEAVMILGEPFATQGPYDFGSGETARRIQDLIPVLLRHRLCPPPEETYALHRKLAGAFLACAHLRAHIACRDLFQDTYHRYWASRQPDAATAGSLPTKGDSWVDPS
# T4 sequence (Q9Y2K2 whole entry): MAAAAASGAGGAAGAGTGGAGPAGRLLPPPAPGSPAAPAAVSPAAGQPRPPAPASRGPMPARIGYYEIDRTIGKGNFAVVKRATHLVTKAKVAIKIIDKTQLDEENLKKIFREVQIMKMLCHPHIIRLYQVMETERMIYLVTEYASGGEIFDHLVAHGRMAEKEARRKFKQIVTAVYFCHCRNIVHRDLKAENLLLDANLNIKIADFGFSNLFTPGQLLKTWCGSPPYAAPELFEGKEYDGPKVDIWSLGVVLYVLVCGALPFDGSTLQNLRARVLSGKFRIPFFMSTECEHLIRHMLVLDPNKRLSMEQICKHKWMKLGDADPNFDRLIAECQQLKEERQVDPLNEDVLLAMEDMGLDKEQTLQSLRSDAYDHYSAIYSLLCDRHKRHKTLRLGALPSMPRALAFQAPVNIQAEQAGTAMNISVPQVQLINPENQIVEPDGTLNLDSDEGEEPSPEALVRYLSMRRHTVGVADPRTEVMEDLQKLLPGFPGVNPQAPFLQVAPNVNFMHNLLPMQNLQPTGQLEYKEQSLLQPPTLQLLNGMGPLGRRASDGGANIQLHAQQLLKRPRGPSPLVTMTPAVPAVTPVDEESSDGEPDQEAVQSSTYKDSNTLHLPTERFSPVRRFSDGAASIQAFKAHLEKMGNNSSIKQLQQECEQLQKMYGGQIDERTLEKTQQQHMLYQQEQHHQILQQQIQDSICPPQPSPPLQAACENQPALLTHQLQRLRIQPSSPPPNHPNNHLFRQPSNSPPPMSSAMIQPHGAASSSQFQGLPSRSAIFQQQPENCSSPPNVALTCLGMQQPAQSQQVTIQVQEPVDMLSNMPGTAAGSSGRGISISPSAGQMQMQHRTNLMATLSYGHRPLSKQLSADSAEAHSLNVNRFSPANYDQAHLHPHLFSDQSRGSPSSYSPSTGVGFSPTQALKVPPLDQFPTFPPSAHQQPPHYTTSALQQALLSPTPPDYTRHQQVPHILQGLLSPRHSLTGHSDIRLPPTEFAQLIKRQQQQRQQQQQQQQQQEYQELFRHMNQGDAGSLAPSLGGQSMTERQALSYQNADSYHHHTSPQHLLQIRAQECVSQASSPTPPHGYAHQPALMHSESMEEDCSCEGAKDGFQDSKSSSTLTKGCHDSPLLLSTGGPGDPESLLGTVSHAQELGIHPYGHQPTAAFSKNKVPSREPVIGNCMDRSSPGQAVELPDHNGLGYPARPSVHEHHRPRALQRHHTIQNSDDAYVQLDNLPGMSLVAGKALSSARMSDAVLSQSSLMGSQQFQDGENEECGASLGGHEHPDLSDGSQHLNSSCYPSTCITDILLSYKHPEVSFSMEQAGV
# T5 sequence (O00506 whole entry): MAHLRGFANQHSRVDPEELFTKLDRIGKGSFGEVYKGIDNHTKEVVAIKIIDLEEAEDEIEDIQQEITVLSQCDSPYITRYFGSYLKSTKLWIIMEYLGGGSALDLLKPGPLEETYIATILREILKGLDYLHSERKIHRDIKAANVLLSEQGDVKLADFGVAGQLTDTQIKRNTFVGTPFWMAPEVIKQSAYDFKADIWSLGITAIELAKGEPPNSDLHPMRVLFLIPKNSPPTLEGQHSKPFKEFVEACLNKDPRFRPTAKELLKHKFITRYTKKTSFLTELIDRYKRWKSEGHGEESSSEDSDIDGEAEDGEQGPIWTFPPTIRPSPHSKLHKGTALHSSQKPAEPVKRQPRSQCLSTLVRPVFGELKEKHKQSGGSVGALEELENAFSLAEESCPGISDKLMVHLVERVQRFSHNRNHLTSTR
compound,measurement,setting,value
"COc1cc2c(cn1)N(C)C(=O)[C@@H](NC(=O)c1nc3n(n1)[C@H](c1ccccc1)CC3)CC2 [GNE684, (S)-N-((S)-7-methoxy-1-methyl-2-oxo-2,3,4,5-tetrahydro-1H-pyrido[3,4-b]azepin-3-yl)-5-phenyl-6,7-dihydro-5H-pyrrolo[1,2-b][1,2,4]triazole-2-carboxamide]",remaining binding at 10 µM,ADCK4,100%
same,remaining binding at 10 µM,AURKB,84%
same,remaining binding at 10 µM,BMPR1B,100%
same,remaining binding at 10 µM,BRAF,98%
same,remaining binding at 10 µM,CSK,100%
same,remaining binding at 10 µM,EGFR(L861Q),96%
same,remaining binding at 10 µM,EGFR(S752-I759del),97%
same,remaining binding at 10 µM,GRK3,100%
same,remaining binding at 10 µM,GSK3A,63%
same,remaining binding at 10 µM,KIT,95%
same,remaining binding at 10 µM,KIT(D816H),100%
same,remaining binding at 10 µM,KIT(D816V),100%
same,remaining binding at 10 µM,LKB1,100%
same,remaining binding at 10 µM,MEK1,91%
same,remaining binding at 10 µM,MYLK4,100%
same,remaining binding at 10 µM,PLK1,79%
same,remaining binding at 10 µM,PRKD1,100%
same,remaining binding at 10 µM,QSK,97%
same,remaining binding at 10 µM,SGK3,93%
same,remaining binding at 10 µM,WEE2,95%
same,remaining binding at 10 µM,YSK1,90%

# Reference: article PMC7206119, “RIP1 inhibition blocks inflammatory diseases but not tumor growth or metastases” (Cell Death and Differentiation, 2019)
